Legend:
[1] = tested on: kokumi (initial taste, middle-after taste) scored by panelists; test: quantitative organoleptic evaluation test of kokumi-imparting activity; type: in vivo, human; details: for Intensity of kokumi, Initial taste: inosine monophosphate 0.05 g/dl, sodium chloride 0.5 g/dl; for Intensity of kokumi, Initial taste / Intensity of kokumi, Middle-after taste: score 0 control, 3 strong, 5 extremely strong, n=4
Description: Degree of kokumi-imparting activity of γ-Glu-Abu was investigated through a quantitative organoleptic evaluation test.
The quantitative organoleptic evaluation test was carried out as follows. Strength of the kokumi-imparting activity of a test compound was measured by using a mixture containing the test compound at 0.001 to 0.5 g/dl in distilled water containing sodium glutamate (0.05 g/dl), inosine monophosphate (0.05 g/dl), and sodium chloride (0.5 g/dl). A sample of the distilled water containing sodium glutamate, inosine monophosphate, and sodium chloride to which any test compound was not added was used as a no addition control. Samples that became acidic relative to the no addition control after dissolution of the test compound were used after pH of them was adjusted with NaOH to be within the range of ±0.2 from that of the no addition control.
The test was performed with organoleptic scores of 0 for the control, 3 for strong effect, and 5 for extremely strong effect, and n=4. Moreover, in order to make the criteria more definite, the scores of 0.001 g/dl of γ-Glu-Val-Gly for the initial taste and the middle-after taste were defined to be 3.0. The “middle-after taste” is a taste sensed in the periods for the middle taste and the aftertaste. Specifically, the initial taste, middle taste, and aftertaste are tastes sensed in the periods of 0 to 2 seconds, 2 to 5 seconds, and after 5 seconds, after eating, respectively, and the “middle-after taste” is a taste sensed in the period from 2 seconds to around 30 seconds. For the scoring, the linear scale method was used, in which determined scores were noted on a straight line on which positions of scores of from −5 to 5 were indicated. The panelists were consisted of persons who had experience of development of seasonings for foodstuffs for one year or longer in total, and could judge the difference of the titers of γ-Glu-Cys-Gly and γ-Glu-Val-Gly added to the tasty and salty solution to be about 10 times (this ability was periodically confirmed).
Kokumi-imparting activities of γ-Glu-Cys and other dipeptides were determined by the same quantitative organoleptic evaluation test as mentioned above.

storage stability = type: physicochemical; details: compared with γ-Glu-Cys
CaSR = CaSR agonist activity; details: previously found by the inventors
Sequence of CaSR (P41180 20-1078): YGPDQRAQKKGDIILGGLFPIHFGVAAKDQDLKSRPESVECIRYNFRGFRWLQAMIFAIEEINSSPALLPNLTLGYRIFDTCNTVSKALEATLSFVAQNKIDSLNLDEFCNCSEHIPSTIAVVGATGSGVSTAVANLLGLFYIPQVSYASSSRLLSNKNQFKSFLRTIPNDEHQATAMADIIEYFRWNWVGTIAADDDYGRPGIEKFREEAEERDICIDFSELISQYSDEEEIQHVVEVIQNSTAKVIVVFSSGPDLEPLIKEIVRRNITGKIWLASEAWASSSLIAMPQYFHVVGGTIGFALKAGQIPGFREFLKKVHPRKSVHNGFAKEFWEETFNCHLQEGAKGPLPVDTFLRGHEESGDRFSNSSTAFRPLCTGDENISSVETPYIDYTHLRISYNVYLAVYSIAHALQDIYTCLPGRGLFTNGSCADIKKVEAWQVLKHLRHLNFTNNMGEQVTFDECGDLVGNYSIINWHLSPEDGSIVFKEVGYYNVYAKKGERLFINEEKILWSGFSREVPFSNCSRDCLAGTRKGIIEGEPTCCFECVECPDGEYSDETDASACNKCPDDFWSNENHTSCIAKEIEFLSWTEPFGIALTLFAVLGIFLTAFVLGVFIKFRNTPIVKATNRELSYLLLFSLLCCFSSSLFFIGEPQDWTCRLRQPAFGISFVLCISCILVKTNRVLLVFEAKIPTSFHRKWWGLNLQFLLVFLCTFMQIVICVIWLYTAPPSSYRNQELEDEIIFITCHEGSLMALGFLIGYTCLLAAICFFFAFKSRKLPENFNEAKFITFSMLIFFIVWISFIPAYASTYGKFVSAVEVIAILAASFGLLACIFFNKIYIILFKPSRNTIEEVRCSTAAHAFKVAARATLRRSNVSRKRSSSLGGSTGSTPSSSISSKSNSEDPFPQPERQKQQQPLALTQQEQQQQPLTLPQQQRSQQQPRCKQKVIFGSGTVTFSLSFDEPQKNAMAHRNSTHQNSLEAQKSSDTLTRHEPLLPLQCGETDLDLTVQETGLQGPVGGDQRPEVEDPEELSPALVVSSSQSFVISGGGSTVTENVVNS

[2] = 0.2 g/dl in distilled water with sodium glutamate 0.05 g/dl
[3] = 0.2 g/dl in the same tasty and salty solution
[4] = 0.01 g/dl in distilled water with sodium glutamate 0.05 g/dl
[5] = 0.01 g/dl in the same tasty and salty solution

Row | Molecule | Intensity of kokumi, Initial taste [1, 2] | Intensity of kokumi, Middle-after taste [1, 3] | Intensity of kokumi, Initial taste [1, 4] | Intensity of kokumi, Middle-after taste [1, 5] | other results
1 | C[C@H](NC(=O)CC[C@H](N)C(=O)O)C(=O)O [γ-Glu-Ala] | 4.5 | 4.3 | – | – | –
2 | N[C@@H](CCC(=O)N[C@@H](CS)C(=O)O)C(=O)O [γ-Glu-Cys, γ-glutamylcysteine] | – | – | 3.1 | 3.1 | –
3 | N[C@@H](CCC(=O)N[C@@H](CO)C(=O)O)C(=O)O [γ-Glu-Ser] | 3.6 | 3.0 | – | – | –
4 | CC(C)[C@H](NC(=O)CC[C@H](N)C(=O)O)C(=O)O [γ-Glu-Val] | – | – | 3.1 | 2.4 | –
5 | L-γ-glutamyl-L-2-aminobutyric acid [γ-Glu-Abu] | – | – | – | – | Intensity of kokumi, Initial taste ([1]; 0.005 g/dl in distilled water with sodium glutamate 0.05 g/dl): 3.8; Intensity of kokumi, Middle-after taste ([1]; 0.005 g/dl in the same tasty and salty solution): 3.2; kokumi-imparting activity (in words) ([1]; addition concentration range 0.001 to 0.5 g/dl): showed kokumi-imparting activity in a broad range; kokumi titer (in words) ([1]; compared with γ-Glu-Ala): extremely high titer; storage stability (in words) (storage stability): superior storage stability; CaSR agonist activity (in words) (CaSR): high CaSR agonist activity

From patent US10537128B2, “Yeast, yeast extract containing gamma-Glu-Abu, and a method for producing the same” (AJINOMOTO CO., INC., priority 2010, dated 2020)
